In experiment [1] the target is T1, PHISH (Mus musculus, UniProt Q9QXT1).
T1 construct: the gene for PHISH isolated from the expression screen encodes the entire protein; made in house; host or cells: in vitro transcription/translation (reticulocyte lysate) of a clone from a murine spleen cDNA library in pCS2(+)
T1 sequence (Q9QXT1 1-280): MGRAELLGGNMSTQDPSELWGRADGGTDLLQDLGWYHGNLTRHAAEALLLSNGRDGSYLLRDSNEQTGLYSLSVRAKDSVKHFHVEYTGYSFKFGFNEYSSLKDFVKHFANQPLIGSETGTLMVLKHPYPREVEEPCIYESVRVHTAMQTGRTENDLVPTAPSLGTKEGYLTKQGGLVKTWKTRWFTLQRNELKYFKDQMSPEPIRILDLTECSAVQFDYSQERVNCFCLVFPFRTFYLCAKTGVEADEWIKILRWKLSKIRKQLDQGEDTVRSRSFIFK
The experiment is described as follows: Competition binding of non-biotinylated lipids against biotinylated PtdIns-3,4,5-P3 on avidin beads. Details: species or system murine. The note with it: for relative affinity for PHISH in competition binding studies: FIG. 4B; for displacement of PHISH from PtdIns-3,4,5-P3-biotin bound to avidin beads: FIG. 4B legend, compared with PtdIns-4,5-P2. As for the experimental part: (§1) Binding and Isolation of Radiolabeled In Vitro Translated Proteins with Biotinylated Phosphoinositides. Avidin beads (Ultralink immobilized Neutravidin™, Pierce Chemical) were washed twice with 5 volumes of wash/binding (WB) buffer (10 mM HEPES pH=7.4, 150 mM NaCl, 0.5% NP-40, 5 mM DTT). The beads were then reconstituted in 2×volume of WB buffer and the biotinylated phosphoinositide was added. Generally, 0.1 μl of 100 μM biotinylated lipid was bound per 1 μl of packed avidin beads. The biotinylated lipid was incubated with the beads for 1-2 hours at 4° C. with gentle agitation and then washed twice with 10×-bead volume of WB buffer to remove excess ligand. Control beads without biotinylated lipid were prepared in an identical manner but without the addition of the lipid. 5 μl of the ^35S-labelling reaction containing the in vitro transcribed/translated protein was then added to the tubes and the protein was allowed to bind for 2 hours at 4° C. with gentle agitation. The tubes were then centrifuged briefly, the beads were washed 2×with 0.5 ml WB buffer, and the bound proteins were eluted by boiling the beads in 20 μl Laemmli sample buffer containing 5% 2-mercaptoethanol. The proteins were then separated on a 13.75% SDS-PAGE gel. Following electrophoresis the gel was soaked in EnHance (Dupont/NEN) for 1 hour and then in a 7.5% w/v solution of PEG-3350 for 1 hour. The gel was then dried and subjected to autoradiography.
Competition Binding of Isolated Proteins for Non-biotinylated Lipids over Biotinylated Lipids. […] Binding was quantitated by measuring the intensities of bands from the autoradiogram or by scintillation counting of the eluted proteins in Laemmli sample buffer using Opti-fluor (Packard). Binding curves were modeled by the equation: […]
where % bound represents the quantity of protein bound to the biotinylated lipid coated beads in the presence of a concentration C of competing lipid. IC50 is the molar excess of competitor C required to reduce the % bound to 50% of its maximal value in the absence of competitor.
In Vitro Translation Expression Cloning. A murine spleen cDNA library containing 2×10^5 independent clones was divided into 1700 individual small pools. The cDNAs in this library had been cloned into the in vitro transcription vector pCS2(+) under control of the SP6 promoter. Individual cDNAs from positive pools were isolated from the other cDNAs of the pool using a 96-well format as described previously. The individual cDNAs were sequenced (Harvard Biopolymer Facility) and compared with known sequences by searching GenBank databases.

Experiment [2] addresses T2, PH domain of PDK1 (Homo sapiens, UniProt O15530).
T2 sequence (O15530 459-550 limits assumed): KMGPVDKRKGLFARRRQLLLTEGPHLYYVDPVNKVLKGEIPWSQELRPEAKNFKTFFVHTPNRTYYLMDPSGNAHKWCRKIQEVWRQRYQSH
The note with it: literature, relative affinities; cited from earlier work.

The target in experiment [3] is T3, PH domain of EST684797 (Homo sapiens, UniProt Q9UN19).
T3 sequence (Q9UN19 164-259): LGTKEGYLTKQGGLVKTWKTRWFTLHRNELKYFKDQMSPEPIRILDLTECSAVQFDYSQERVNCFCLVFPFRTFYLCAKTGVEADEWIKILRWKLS
As to conditions: literature; cited from earlier work.

For experiment [4], the target named is MBP-Akt PH fusion protein (Mus musculus, UniProt P31750). The experiment is described as follows: Competition binding of non-biotinylated lipids against biotinylated PtdIns-3,4,5-P3 on avidin beads. The note with it: FIG. 2C legend; compared with PtdIns-4,5-P2.
MBP-Akt PH fusion protein, sequence (P31750 1-130): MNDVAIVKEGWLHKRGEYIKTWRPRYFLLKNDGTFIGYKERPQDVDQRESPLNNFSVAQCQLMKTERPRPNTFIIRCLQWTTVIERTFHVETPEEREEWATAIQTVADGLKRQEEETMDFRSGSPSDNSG
Description: The proteins were expressed by transcribing/translating 0.01-1 μg of DNA of MBP or MBP-Akt PH with the Promega TnT Coupled Reticulocyte Lysate System using SP6 RNA polymerase and ^35S-methionine (in vivo labeling grade, Amersham) according to the manufacturers protocol.
Binding and Isolation of Radiolabeled In Vitro Translated Proteins with Biotinylated Phosphoinositides. Avidin beads (Ultralink immobilized Neutravidin™, Pierce Chemical) were washed twice with 5 volumes of wash/binding (WB) buffer (10 mM HEPES pH=7.4, 150 mM NaCl, 0.5% NP-40, 5 mM DTT). The beads were then reconstituted in 2×volume of WB buffer and the biotinylated phosphoinositide was added. Generally, 0.1 μl of 100 μM biotinylated lipid was bound per 1 μl of packed avidin beads. The biotinylated lipid was incubated with the beads for 1-2 hours at 4° C. with gentle agitation and then washed twice with 10×-bead volume of WB buffer to remove excess ligand. […]
Competition Binding of Isolated Proteins for Non-biotinylated Lipids over Biotinylated Lipids. […] Binding was quantitated by measuring the intensities of bands from the autoradiogram or by scintillation counting of the eluted proteins in Laemmli sample buffer using Opti-fluor (Packard). […]
In experiment [5] the target is T4, PDK1 (C-terminal fragment with PH domain) (Mus musculus, UniProt Q9Z2A0).
T4 construct: the first in-frame AUG codon appears at the end of the kinase domain such that only the entire PH domain of PDK1 is translated; made in house; host or cells: in vitro transcription/translation (reticulocyte lysate) of a clone from a murine spleen cDNA library in pCS2(+)
T4 sequence (Q9Z2A0 462-553 limits assumed): T2 sequence (O15530 459-550 limits assumed) with R88Q, H92N
Description: Binding of 35S-labeled in vitro translated protein to avidin beads pre-bound with biotinylated phosphoinositide. As to conditions: FIG. 3A top panel right. Details: species or system murine. Here is the method: as §1, with “The gel was then dried and subjected to autoradiography.” left out

Experiment [6] has as its target PH domain of Akt (Homo sapiens, UniProt P31749). As to conditions: two published studies; cited from earlier work.

Substitutions are numbered along the chain they refer to.

PH domain of Akt, sequence (P31749 5-108 limits assumed): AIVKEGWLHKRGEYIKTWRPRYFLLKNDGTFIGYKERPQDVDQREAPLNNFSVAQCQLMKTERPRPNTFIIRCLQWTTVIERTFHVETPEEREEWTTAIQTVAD

For the substance “phosphatidylinositol-3,4,5-trisphosphate [PtdIns-3,4,5-P3]”, in experiment [1], the “relative affinity for PHISH in competition binding studies” value (from here on “relative affinity for PHISH”) was “equal affinity” and the “displacement of PHISH from PtdIns-3,4,5-P3-biotin bound to avidin beads” value is “preferentially displace”. For the same substance, the “affinity for the PH domain of PDK1” value in experiment [2] was “four-fold higher affinity”. The “binding to the PH domain of EST684797” value in experiment [3] is “binds tightly and selectively”.

Turning to “phosphatidylinositol-3,4-bisphosphate [PtdIns-3,4-P2]”, in experiment [4], the “displacement of MBP-PH from PtdIns-3,4,5-P3-biotin” value is “preferentially displace”. In addition, in experiment [1], the “relative affinity for PHISH” value is “equal affinity” and the “displacement of PHISH from PtdIns-3,4,5-P3-biotin bound to avidin beads” value is “preferentially displace”. Moreover, in experiment [5], the “binding of the expressed purified PDK1 fragment (single clone)” value is recorded as “apparent lower affinity than for PtdIns-3,4,5-P3”. For the same substance, the “rank order of affinities for the PH domain of Akt” value in experiment [6] is on record as “PtdIns-3,4,5-P3>PtdIns-3,4-P2>>PtdIns-4,5-P2”. Also, in experiment [3], the “binding to the PH domain of EST684797” value is “binds tightly and selectively”.

For “phosphatidylinositol-4,5-bisphosphate [PtdIns-4,5-P2]”, the “relative affinity for PHISH” value in experiment [1] was “significantly lower affinity”. In addition, in experiment [2], the “affinity for the PH domain of PDK1” value is reported as “much lower affinity”. Moreover, the “rank order of affinities for the PH domain of Akt” value in experiment [6] is on record as “PtdIns-3,4,5-P3>PtdIns-3,4-P2>>PtdIns-4,5-P2”.
